{"source": "patent US7306811B2", "about": "“Fungicide composition based on halosulphone in particular for packaging” (priority 2000, dated 2007)", "tested_on": "six mushroom strains: Aspergillus Sydowi, Aspergillus Versicolor, Cladosporium Herbarum, Cladosporium Sphaerospernum, Penicillium Citrinum and Penicillium …", "assay": "Development of moulds on treated paper, standard AFNOR X 41 517", "settings": "overall judgement of the paper mould test", "protocol": "The following test was carried out. Two surfaces of a woodless industrial paper weighing 80 g/m^2 dry, having a 1-minute COBB value of 25 to 35, were brought into contact with six mushroom strains for 14 days under the quality test conditions of the standard AFNOR X 41 517: the strains used were Aspergillus Sydowi, Aspergillus Versicolor, Cladosporium Herbarum, Cladosporium Sphaerospernum, Penicillium Citrinum and Penicillium Corylophilum. At the end of this period, visual assessment of the development of moulds was noted using a code from 0 to 6+, the value 6+ being allocated to the untreated control, while the notation 0 corresponded to no development of the seeded moulds.\nThe fungicide solutions used in this test were prepared in the same way as mentioned above. With regard to the fungicide T1, chlorothalonil was mixed in water. The fungicidal product T2 was prepared on the basis of di-iodo-ethyl-p-tolyl-sulphone only. The fungicide T3 was prepared from a mixture of chlorotalonyl and a zinc pyrithione. The fungicide T4 was prepared from a mixture of Amical (di-iodomethyl-p-tolyl-sulphone, and zinc pyrithione. Finally the fungicide T5 corresponds to the mixture given by way of example above according to the invention, i.e. a mixture of chlorotalonyl and di-iodo-methyl-p-tolyl-sulphone or Amical."}
{"compound": "N#Cc1c(Cl)c(Cl)c(Cl)c(C#N)c1Cl", "note": "[Chlorothalonil alone T1, 2,4,5,6 tetrachloro-1,3 benzene dicarbonitrile]", "values": [{"measurement": "fungicidal quality in words, as seen from the Table", "result": "average fungicide"}]}
{"compound": "Cc1ccc(S(=O)(=O)C(I)I)cc1", "note": "[DIMPTS alone T2, di-iodomethyl-p-tolyl-sulphone]", "values": [{"measurement": "fungicidal quality in words, as seen from the Table", "result": "excellent fungicide"}]}
